Key:
Type in all cases: in vivo
Mogl = assay: plant injury after spraying emerged plants (Table D); set-up: scale not given here
Text: (§1) Topsoil (silt loam) is sieved through a screen having 1.27 cm openings. […] This mixture is steam sterilized and then placed in aluminum pans 6.985 cm deep having ten holes in the bottom each 0.635 cm in diameter. The soil mixture is compacted to a depth of 1.27 cm. from the top of the pan. A predetermined number of seeds of each of several dicotyledonous and monocotyledonous annual plant species and/or vegetative propagules for the perennial plant species are placed on the soil and pressed into the soil surface. The seeds and/or vegetative propagules are covered with 1.27 cm of a mixture of 50% topsoil and 50% of a mixture of Canadian sphagnum peat moss, vermiculite and a wetting agent. The pans are then placed on a capillary mat on a greenhouse bench and subirrigated as needed.
(§2) In the following Table D the legends used to identify the plant species are the same as those used in the preceding Table B.

Corn = assay: as above; set-up: scale not given here
Text: as §1, §2

Whez = assay: as above; set-up: scale not given here
Text: as §1, §2

Rice = assay: as above; set-up: scale not given here
Text: as §1, §2

Lacg = assay: as above; set-up: scale not given here
Text: as §1, §2

Grso = assay: as above; set-up: scale not given here
Text: as §1, §2

Sobe = assay: as above; set-up: scale not given here
Text: as §1, §2

Bygr = assay: as above; set-up: scale not given here
Text: as §1, §2

Prmi = assay: as above; set-up: scale not given here
Text: as §1, §2

Grft = assay: as above; set-up: scale not given here
Text: as §1, §2

Cobu = assay: as above; set-up: scale not given here
Text: as §1, §2

Dobr = assay: as above
Text: Topsoil (silt loam) is sieved through a screen having 1.27 cm openings. In some of the tests the soil was mixed with fertilizer (1225 g/cu. m of 12/5/9 containing isobutylidene diurea), while in other tests the fertilizer was omitted. This mixture is steam sterilized and then placed in aluminum pans 6.985 cm deep having ten holes in the bottom each 0.635 cm in diameter. The soil mixture is compacted to a depth of 1.27 cm. from the top of the pan. A predetermined number of seeds of each of several dicotyledonous and monocotyledonous annual plant species and/or vegetative propagules for the perennial plant species are placed on the soil and pressed into the soil surface. The seeds and/or vegetative propagules are covered with 1.27 cm of a mixture of 50% topsoil and 50% of a mixture of Canadian sphagnum peat moss, vermiculite and a wetting agent. The pans are then placed on a capillary mat on a greenhouse bench and subirrigated as needed. After the plants reach the desired stage (9 to 14 days, 1 to 3 true leaf stage), each pan (except the control pans) is removed to a spraying chamber and sprayed by means of an atomizer, operating at a spray pressure of 170.3 kPa ([…]) at the application rates noted in Table D. In the spray solution is an amount of an emulsifying agent mixture (35% butylamine salt of dodecylbenzenesulfonic acid and 65% tall oil condensed with ethylene oxide in the ratio of 11 mols of ethylene oxide/mol of tall oil) to give a spray solution or suspension. The spray solution or suspension contains a sufficient amount of the candidate chemical in order to give application rates of the active ingredient corresponding to those shown in Table D below while applying a total amount of solution or suspension equivalent to 1870 L/Ha (200 gallons/acre). The pans are returned to the greenhouse and watered as before and the injury to the plants as compared to the control pans is observed at approximately 10-14 days (usually 11 days).
as §2

Downy Brome = assay: Pre-emergent herbicidal activity (Table A); conditions: Bromus tectorum, pre-emergence, Dobr, 11.2 kg/ha, 10-14 days, read-out: herbicidal rating (% inhibition)
Summary of the method: (§3)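 Seeds or vegetative propagules were set on topsoil compacted to 0.95 to 1.27 cm below the pan rim, then covered with soil thoroughly mixed with a known amount of test compound in acetone or water carrier. Ratings follow a scale of percent inhibition per species.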

Barnyardgrass = assay: Pre-emergent herbicidal activity (Table A); conditions: Echinochloa crus-galli, pre-emergence, Bygr, 11.2 kg/ha, 10-14 days, read-out: herbicidal rating (% inhibition)
Summary of the method: as §3

Cocklebur = assay: Pre-emergent herbicidal activity (Table A); conditions: Xanthium strumarium, pre-emergence, Cobu, 11.2 kg/ha, 10-14 days, read-out: herbicidal rating (% inhibition)
Summary of the method: as §3

Morningglory = assay: Pre-emergent herbicidal activity (Table A); conditions: Ipomoea, pre-emergence, Mogl, 11.2 kg/ha, 10-14 days, read-out: herbicidal rating (% inhibition)
Summary of the method: as §3

In the case of `COC(=O)c1c(OC)nc(C(F)(F)Cl)c(C(=O)OC)c1CC(C)C` [Compound 30, 3,5-pyridinedicarboxylic acid, 2-(chlorodifluoromethyl)-6-methoxy-4-(2-methylpropyl)-, dimethyl ester], the “plant injury rating, Mogl” value (Mogl; 0.5605 kg/ha) is reported as 1, the “plant injury rating, Mogl” value (Mogl; 1.1210 kg/ha) is reported as 1 and the “plant injury rating, Mogl” value (Mogl; 2.8025 kg/ha) is reported as 1. The “plant injury rating, Mogl” value (Mogl; 5.6050 kg/ha) was 1, the “plant injury rating, Mogl” value (Mogl; 8.4075 kg/ha) was 1 and the “plant injury rating, Mogl” value (Mogl; 11.2100 kg/ha) was 2. For the same compound, the “plant injury rating, Corn” value (Corn; 0.5605 kg/ha) was 1, the “plant injury rating, Corn” value (Corn; 1.1210 kg/ha) was 1 and the “plant injury rating, Corn” value (Corn; 2.8025 kg/ha) was 2. The “plant injury rating, Corn” value (Corn; 5.6050 kg/ha) was 1, the “plant injury rating, Corn” value (Corn; 8.4075 kg/ha) was 1 and the “plant injury rating, Corn” value (Corn; 11.2100 kg/ha) was 2. The “plant injury rating, Whez” value (Whez; 0.5605 kg/ha) was 0, the “plant injury rating, Whez” value (Whez; 1.1210 kg/ha) was 0 and the “plant injury rating, Whez” value (Whez; 2.8025 kg/ha) was 0. The “plant injury rating, Whez” value (Whez; 5.6050 kg/ha) was 0, the “plant injury rating, Whez” value (Whez; 8.4075 kg/ha) was 0 and the “plant injury rating, Whez” value (Whez; 11.2100 kg/ha) was 0. The “plant injury rating, Rice” value (Rice; 0.5605 kg/ha) was 0, the “plant injury rating, Rice” value (Rice; 1.1210 kg/ha) was 0 and the “plant injury rating, Rice” value (Rice; 2.8025 kg/ha) was 0. For the same compound, the “plant injury rating, Rice” value (Rice; 5.6050 kg/ha) was 0, the “plant injury rating, Rice” value (Rice; 8.4075 kg/ha) was 0 and the “plant injury rating, Rice” value (Rice; 11.2100 kg/ha) was 0. For the same compound, the “plant injury rating, Lacg” value (Lacg; 0.5605 kg/ha) was 1, the “plant injury rating, Lacg” value (Lacg; 1.1210 kg/ha) was 0 and the “plant injury rating, Lacg” value (Lacg; 2.8025 kg/ha) was 2. For the same compound, the “plant injury rating, Lacg” value (Lacg; 5.6050 kg/ha) was 2, the “plant injury rating, Lacg” value (Lacg; 8.4075 kg/ha) was 1 and the “plant injury rating, Lacg” value (Lacg; 11.2100 kg/ha) was 1. For the same compound, the “plant injury rating, Grso” value (Grso; 0.5605 kg/ha) was 0, the “plant injury rating, Grso” value (Grso; 1.1210 kg/ha) was 0 and the “plant injury rating, Grso” value (Grso; 2.8025 kg/ha) was 1. For the same compound, the “plant injury rating, Grso” value (Grso; 5.6050 kg/ha) was 1, the “plant injury rating, Grso” value (Grso; 8.4075 kg/ha) was 1 and the “plant injury rating, Grso” value (Grso; 11.2100 kg/ha) was 1. For the same compound, the “plant injury rating, Sobe” value (Sobe; 0.5605 kg/ha) was 0, the “plant injury rating, Sobe” value (Sobe; 1.1210 kg/ha) was 1 and the “plant injury rating, Sobe” value (Sobe; 2.8025 kg/ha) was 1. The “plant injury rating, Sobe” value (Sobe; 5.6050 kg/ha) was 1, the “plant injury rating, Sobe” value (Sobe; 8.4075 kg/ha) was 1 and the “plant injury rating, Sobe” value (Sobe; 11.2100 kg/ha) was 1. For the same compound, the “plant injury rating, Bygr” value (Bygr; 0.5605 kg/ha) was 0, the “plant injury rating, Bygr” value (Bygr; 1.1210 kg/ha) was 0 and the “plant injury rating, Bygr” value (Bygr; 2.8025 kg/ha) was 2. For the same compound, the “plant injury rating, Bygr” value (Bygr; 5.6050 kg/ha) was 1, the “plant injury rating, Bygr” value (Bygr; 8.4075 kg/ha) was 1 and the “plant injury rating, Bygr” value (Bygr; 11.2100 kg/ha) was 1. The “plant injury rating, Prmi” value (Prmi; 0.5605 kg/ha) was 0, the “plant injury rating, Prmi” value (Prmi; 1.1210 kg/ha) was 0 and the “plant injury rating, Prmi” value (Prmi; 2.8025 kg/ha) was 1. The “plant injury rating, Prmi” value (Prmi; 5.6050 kg/ha) was 0, the “plant injury rating, Prmi” value (Prmi; 8.4075 kg/ha) was 0 and the “plant injury rating, Prmi” value (Prmi; 11.2100 kg/ha) was 0. For the same compound, the “plant injury rating, Grft” value (Grft; 0.5605 kg/ha) was 1, the “plant injury rating, Grft” value (Grft; 1.1210 kg/ha) was 0 and the “plant injury rating, Grft” value (Grft; 2.8025 kg/ha) was 2. The “plant injury rating, Grft” value (Grft; 5.6050 kg/ha) was 2, the “plant injury rating, Grft” value (Grft; 8.4075 kg/ha) was 1 and the “plant injury rating, Grft” value (Grft; 11.2100 kg/ha) was 1. The “plant injury rating, Cobu” value (Cobu; 0.5605 kg/ha) was 0, the “plant injury rating, Cobu” value (Cobu; 1.1210 kg/ha) was 0 and the “plant injury rating, Cobu” value (Cobu; 2.8025 kg/ha) was 1. For the same compound, the “plant injury rating, Cobu” value (Cobu; 5.6050 kg/ha) was 1, the “plant injury rating, Cobu” value (Cobu; 8.4075 kg/ha) was 2 and the “plant injury rating, Cobu” value (Cobu; 11.2100 kg/ha) was 2. For the same compound, the “plant injury rating, Dobr” value (Dobr; 0.5605 kg/ha) was 0, the “plant injury rating, Dobr” value (Dobr; 1.1210 kg/ha) was 0 and the “plant injury rating, Dobr” value (Dobr; 2.8025 kg/ha) was 0. For the same compound, the “plant injury rating, Dobr” value (Dobr; 5.6050 kg/ha) was 0, the “plant injury rating, Dobr” value (Dobr; 8.4075 kg/ha) was 0 and the “plant injury rating, Dobr” value (Dobr; 11.2100 kg/ha) was 0. For the same compound, the inhibition at 11200 g/ha (Downy Brome) was 75 to 100%, the inhibition at 11200 g/ha (Barnyardgrass) was 75 to 100% and the inhibition at 11200 g/ha (Cocklebur) was 25 to 49%. It also gave an inhibition at 11200 g/ha (Morningglory) of 75 to 100%.
For `COC(=O)c1c(OC)nc(C(F)(F)F)c(C2=NCCS2)c1CC(C)C` [Compound 50, 3-pyridinecarboxylic acid, 5-(4,5-dihydro-2-thiazolyl)-2-methoxy-4-(2-methylpropyl)-6-(trifluoromethyl)-, methyl ester], the “plant injury rating, Mogl” value (Mogl; 0.0701 kg/ha) was 1, the “plant injury rating, Mogl” value (Mogl; 0.2803 kg/ha) was 2 and the “plant injury rating, Mogl” value (Mogl; 1.1210 kg/ha) was 2. For the same compound, the “plant injury rating, Mogl” value (Mogl; 5.3808 kg/ha) was 3, the “plant injury rating, Corn” value (Corn; 0.0701 kg/ha) was 0 and the “plant injury rating, Corn” value (Corn; 0.2803 kg/ha) was 0. For the same compound, the “plant injury rating, Whez” value (Whez; 0.0701 kg/ha) was 0, the “plant injury rating, Whez” value (Whez; 0.2803 kg/ha) was 0 and the “plant injury rating, Whez” value (Whez; 1.1210 kg/ha) was 0. The “plant injury rating, Whez” value (Whez; 5.3808 kg/ha) was 0, the “plant injury rating, Rice” value (Rice; 0.0701 kg/ha) was 0 and the “plant injury rating, Rice” value (Rice; 0.2803 kg/ha) was 0. For the same compound, the “plant injury rating, Rice” value (Rice; 1.1210 kg/ha) was 1, the “plant injury rating, Rice” value (Rice; 5.3808 kg/ha) was 0 and the “plant injury rating, Lacg” value (Lacg; 0.2803 kg/ha) was 3. For the same compound, the “plant injury rating, Lacg” value (Lacg; 1.1210 kg/ha) was 3, the “plant injury rating, Lacg” value (Lacg; 5.3808 kg/ha) was 3 and the “plant injury rating, Grso” value (Grso; 0.0701 kg/ha) was 0. The “plant injury rating, Grso” value (Grso; 0.2803 kg/ha) was 0, the “plant injury rating, Grso” value (Grso; 1.1210 kg/ha) was 0 and the “plant injury rating, Sobe” value (Sobe; 0.0701 kg/ha) was 0. For the same compound, the “plant injury rating, Sobe” value (Sobe; 0.2803 kg/ha) was 1, the “plant injury rating, Sobe” value (Sobe; 1.1210 kg/ha) was 2 and the “plant injury rating, Sobe” value (Sobe; 5.3808 kg/ha) was 3. For the same compound, the “plant injury rating, Bygr” value (Bygr; 0.0701 kg/ha) was 0, the “plant injury rating, Bygr” value (Bygr; 0.2803 kg/ha) was 0 and the “plant injury rating, Bygr” value (Bygr; 1.1210 kg/ha) was 1. For the same compound, the “plant injury rating, Prmi” value (Prmi; 0.0701 kg/ha) was 0, the “plant injury rating, Prmi” value (Prmi; 0.2803 kg/ha) was 1 and the “plant injury rating, Grft” value (Grft; 0.0701 kg/ha) was 0. For the same compound, the “plant injury rating, Grft” value (Grft; 0.2803 kg/ha) was 1, the “plant injury rating, Grft” value (Grft; 1.1210 kg/ha) was 1 and the “plant injury rating, Grft” value (Grft; 5.3808 kg/ha) was 2. For the same compound, the “plant injury rating, Cobu” value (Cobu; 0.0701 kg/ha) was 0, the “plant injury rating, Cobu” value (Cobu; 0.2803 kg/ha) was 1 and the “plant injury rating, Cobu” value (Cobu; 1.1210 kg/ha) was 2. For the same compound, the “plant injury rating, Cobu” value (Cobu; 5.3808 kg/ha) was 3, the “plant injury rating, Dobr” value (Dobr; 0.0701 kg/ha) was 0 and the “plant injury rating, Dobr” value (Dobr; 1.1210 kg/ha) was 0. The “plant injury rating, Dobr” value (Dobr; 5.3808 kg/ha) was 0, the inhibition at 11200 g/ha (Downy Brome) was 75 to 100% and the inhibition at 11200 g/ha (Barnyardgrass) was 75 to 100%. The inhibition at 11200 g/ha (Cocklebur) was 75 to 100% and the inhibition at 11200 g/ha (Morningglory) was 75 to 100%.

Reference: patent US5391540A, “Substituted pyridine compounds” (Rohm and Haas Company, priority 1993, dated 1995)
